PubChem BioAssay (NCI)
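Exposure lasted 48 hours, with cells grown in 96-well plates and compounds tested at five concentrations. Abbreviation: GI50, concentration required for 50% inhibition of growth. TGI denotes the concentration required for complete inhibition of growth.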

How the values were obtained:
Experiment in all cases: inhibition of tumour cell growth, NCI panel, 48 h
SNB-75 CNS = test system: SNB-75 CNS
SK-OV-3 ovarian = test system: SK-OV-3 ovarian
RXF 393 renal = test system: RXF 393 renal
LOX IMVI melanoma = test system: LOX IMVI melanoma
SF-539 CNS = test system: SF-539 CNS
HCT-116 colon = test system: HCT-116 colon
OVCAR-5 ovarian = test system: OVCAR-5 ovarian
IGROV1 ovarian = test system: IGROV1 ovarian
MALME-3M melanoma = test system: MALME-3M melanoma
UACC-62 melanoma = test system: UACC-62 melanoma

SMILES	TGI (SNB-75 CNS) [nM]	TGI (SK-OV-3 ovarian) [nM]	TGI (RXF 393 renal) [nM]	TGI (LOX IMVI melanoma) [nM]	TGI (SF-539 CNS) [nM]	TGI (HCT-116 colon) [nM]	TGI (OVCAR-5 ovarian) [nM]	TGI (IGROV1 ovarian) [nM]	TGI (MALME-3M melanoma) [nM]	TGI (UACC-62 melanoma) [nM]	GI50 (SNB-75 CNS) [nM]	GI50 (SK-OV-3 ovarian) [nM]	GI50 (RXF 393 renal) [nM]	GI50 (LOX IMVI melanoma) [nM]	GI50 (SF-539 CNS) [nM]	GI50 (HCT-116 colon) [nM]	GI50 (OVCAR-5 ovarian) [nM]	GI50 (IGROV1 ovarian) [nM]	GI50 (MALME-3M melanoma) [nM]	GI50 (UACC-62 melanoma) [nM]
COc1ccc(-c2cc(=O)c3c(OC)c(OC)c(OC)c(OC)c3o2)cc1	> 100000	> 100000	> 100000	> 100000	> 100000	> 100000	> 100000	> 100000	> 100000	84000										
C[C@@H]1O[C@@H](O[C@H]2CC[C@@]3(C)[C@H](CCC4[C@@H]3C(O)C[C@]3(C)[C@@H](c5ccc(=O)oc5)CC[C@]43O)C2)[C@H](O)[C@H](O)[C@H]1O (some centres undefined)	10.7	9.87	19.4	10.1	8.97	5.44	< 11.3	23.7	16.6	15.3	4.7	5.02	6.4	5.19	4.21	< 3.25	5.83	6.5	6.59	6.98
CCCCCn1sc(=O)n(Cc2ccc(CNC(=O)OCc3ccc4cccc(O)c4n3)cc2)c1=O	4520	18400	2670	2330	2800	2690	3090	2650	3000	2870	1140	4580	1370	1090	1480	419	1680	1170	1560	1510
COc1cc2c(c(OC)c1OC)-c1ccc(SC)c(=O)cc1[C@@H](NC1OC(CO)C(O)C(O)C1O)CC2 (some centres undefined)	> 100000	> 100000	> 100000	> 100000	70.3	> 100000	> 100000	> 100000	> 100000	> 100000	43.9	39.6	61.3	37	24.3	31.4	51.9	63.5	44800	54.9
CC(C)c1c2[nH]c3ccccc3c2c(C(C)C)c2[nH]c3ccccc3c12	> 100000	> 100000	> 100000	> 100000	> 100000	> 100000	> 100000	> 100000	> 100000	> 100000										
CCn1c2ccccc2c2cc(/C=C(/C#N)C(N)=O)ccc21	44100	> 78100	19300	> 100000	6610	> 52400	3950	> 51900	> 100000	7650	16100	21800	2570	14400		3710	668	2870	> 75200	1910
CCOc1nc(N)nc(C)c1N=Nc1ccc(Cl)cc1	> 100000	> 100000	> 100000	> 100000	> 100000	> 100000	> 100000	> 100000	> 100000	> 100000										
Cc1ccc(S(=O)OC2C3CC4CC(C3)CC2C4)cc1 (centres undefined)	> 100000	> 100000	> 100000	> 100000	> 100000	> 100000	> 100000	> 100000	> 100000	> 100000										
